We go through ten compounds from US5733924A, “DC 107 derivatives and treatment methods” (Kyowa Hakko Kogyo Co., Ltd., priority 1995, dated 1998).

≈ marks a conversion by molar mass, not a printed value. Read-outs that look alike come from different tables or passages of the source.

The term ILS denotes the gain in survival time of treated over control animals, in per cent.

One assay deals with P388 Leukemia. In words: Antitumor activity against P388 leukemia in mice (increased life span). It is filed as in vivo, CDF1 mice. Particulars: Mus musculus, P388, ip, 720 h. The procedure: Ascites were collected from the abdominal cavity of P388 ascites tumor-bearing cancer mice (DBA/2) on the 7th day after transplantation. A number of P388 cells in the ascites was counted, and a tumor cell floating liquid of 5×10^6 cells/ml was prepared using a physiological saline solution. Then, 0.2 ml of the solution containing 1×10^6 cells was transplanted into the abdominal cavity of CDF1 mice having a body weight of from 20 to 25 g.
The effect of the test compound was determined in terms of the ratio of average survival days of the group administered with the test compound to average survival days of the control group (non-medicated group) (i.e., an increased life span, ILS%).

Assay [1] has as its system Staphylococcus aureus ATCC 6538P. In words: Antibacterial activity, agar dilution method (MIC). Particulars: ATCC6538P. It counts as cell-based. From the text:
(§1) The antibacterial activity as determined by the agar dilution method using a medium prepared by dissolving 3 g of Bacto-Tryptone (a product of Difco Laboratories), 3 g of a meat extract, 1 g of an yeast extract, 1 g of glucose and 16 g of agar in one liter of water (pH 7).
SA: Staphylococcus aureus ATCC 6538P

Assay [2] concerns Enterococcus faecium ATCC 10541. In words: Antibacterial activity, agar dilution method (MIC). It counts as cell-based.
Description: as §1
EF: Enterococcus faecium ATCC 10541
(In general: Agar dilution tests growth on a series of plates holding different concentrations.)

The next assay concerns Escherichia coli ATCC 26. In words: Antibacterial activity, agar dilution method (MIC). It is filed as cell-based.
Description: as §1
EC: Escherichia coli ATCC 26

Assay [3] concerns Klebsiella pneumoniae ATCC 10031. The experiment in a line: Antibacterial activity, agar dilution method (MIC). It is filed as cell-based.
Description: as §1
KP: Klebsiella pneumoniae ATCC 10031

The subject of assay [4] is Bacillus subtilis No. 10707. The experiment in a line: Antibacterial activity, agar dilution method (MIC). It is filed as cell-based.
Description: as §1
BS: Bacillus subtilis No. 10707

The mark [5] stands for this setting: 2.0 mg/kg, single i.p. 24 hours after transplantation, CDF1 mice, 30 days observation, read-out: ILS (increased life span).
Where [6] appears, read: SA: Staphylococcus aureus ATCC 6538P, agar dilution, pH 7, read-out: MIC (minimum growth inhibitory concentration).
[7] abbreviates: ATCC10541, EF: Enterococcus faecium ATCC 10541, pH 7, read-out: MIC (minimum growth inhibitory concentration).
[8] abbreviates: ATCC26, EC: Escherichia coli ATCC 26, pH 7, read-out: MIC (minimum growth inhibitory concentration).
The mark [9] stands for this setting: ATCC10031, KP: Klebsiella pneumoniae ATCC 10031, agar dilution, pH 7, read-out: MIC (minimum growth inhibitory concentration).
Where [10] appears, read: BS: Bacillus subtilis No. 10707, pH 7, read-out: MIC (minimum growth inhibitory concentration).
[11] abbreviates: 4.0 mg/kg, single i.p. 24 hours after transplantation, CDF1 mice, 30 days observation, read-out: ILS (increased life span).
The mark [12] stands for this setting: read-out: ILS (increased life span).
[13] abbreviates: Staphylococcus aureus, pH 7, read-out: MIC (minimum growth inhibitory concentration).
[14] abbreviates: Enterococcus faecium, ATCC10541, pH 7, read-out: MIC (minimum growth inhibitory concentration), EF: Enterococcus faecium ATCC 10541.
Setting [15] is: Escherichia coli, ATCC26, pH 7, read-out: MIC (minimum growth inhibitory concentration), EC: Escherichia coli ATCC 26.
[16] abbreviates: Klebsiella pneumoniae, ATCC10031, pH 7, read-out: MIC (minimum growth inhibitory concentration).
Setting [17] is: Bacillus subtilis, NO.10707, pH 7, read-out: MIC (minimum growth inhibitory concentration), BS: Bacillus subtilis No. 10707.

Regarding `COC1(OC2C=C(C)CCC3(C(C)(O)C(=O)SCc4oc(=O)oc4C)CC(=O)N(C(C)c4nc(cs4)C=CC=CC2=O)[S+]3[O-])CCOCC1` (centres unmarked) [Compound 122], the ILS at 2 mg/kg with P388 Leukemia (setting [5]) was determined as 52%. The MIC in assay [1] (setting [6]) came out at 0.65 mg/L (≈ 0.882 µM); in assay [2] (setting [7]) it was 1.3 mg/L (≈ 1.76 µM); in the assay on Escherichia coli ATCC 26 (setting [8]), 42 mg/L (≈ 57 µM); in assay [3] (setting [9]), 2.6 mg/L (≈ 3.53 µM); in assay [4] (setting [10]) it was 0.16 mg/L (≈ 0.217 µM).
With `C/C1=C\C(OC(=O)[C@H](C)NC(=O)OCc2ccccc2)C(=O)/C=C/C=C\c2csc(n2)C(C)NC(=O)CC2(CC1)[S+]([O-])SC(=O)C2(C)O` (some centres unmarked) [Compound 103], the increase in lifespan (ILS) at 4 mg/kg with P388 Leukemia (setting [11]) was found to be 52%. Also, the MIC in assay [1] (setting [6]) came to 42 mg/L (≈ 58.7 µM); in assay [2] (setting [7]), 0.081 mg/L (≈ 0.113 µM); in the assay with Escherichia coli ATCC 26 (setting [8]), 10 mg/L (≈ 14 µM); in assay [3] (setting [9]), 1.3 mg/L (≈ 1.82 µM); in assay [4] (setting [10]) it was 0.041 mg/L (≈ 0.0573 µM).
Take `CCOCOC1/C=C(\C)CCC2(C(C)(O)C(=O)SCc3oc(=O)oc3C)CC(=O)N(C(C)c3nc(cs3)/C=C\C=C\C1=O)[S+]2[O-]` (centres unmarked) [Compound 59]: the ILS at 2 mg/kg in the assay on P388 Leukemia (setting [5]) is 47%. Further, the MIC is 1.3 mg/L (≈ 1.91 µM) in assay [1] (setting [6]); 1.3 mg/L (≈ 1.91 µM) in assay [2] (setting [7]); 21 mg/L (≈ 30.8 µM) in the assay with Escherichia coli ATCC 26 (setting [8]); 5.2 mg/L (≈ 7.64 µM) in assay [3] (setting [9]); 0.65 mg/L (≈ 0.955 µM) in assay [4] (setting [10]).
In the case of `CC(=O)NCC(=O)OC1/C=C(\C)CCC2(CC(=O)NC(C)c3nc(cs3)/C=C\C=C\C1=O)[S+]([O-])SC(=O)C2(C)O` (centres unmarked) [Compound 100], the ILS at 4 mg/kg in the assay on P388 Leukemia (setting [12]) came out at 66%. For the same compound, the MIC in assay [1] (setting [13]) is 0.041 mg/L (≈ 0.0672 µM); in assay [2] (setting [14]), 0.041 mg/L (≈ 0.0672 µM); in the assay with Escherichia coli ATCC 26 (setting [15]), 2.6 mg/L (≈ 4.26 µM); in assay [3] (setting [16]) it was 0.041 mg/L (≈ 0.0672 µM); in assay [4] (setting [17]), 0.081 mg/L (≈ 0.133 µM).
Turning to `C/C1=C\C(OC(=O)CNC(=O)CNC(=O)OCc2ccccc2)C(=O)/C=C/C=C\c2csc(n2)C(C)NC(=O)CC2(CC1)[S+]([O-])SC(=O)C2(C)O` (centres unmarked) [Compound 108], in the assay with P388 Leukemia (setting [11]), the ILS at 4 mg/kg is 72%. In addition, the MIC came to 0.16 mg/L (≈ 0.211 µM) in assay [1] (setting [6]); 0.081 mg/L (≈ 0.107 µM) in assay [2] (setting [7]); 21 mg/L (≈ 27.7 µM) in the assay with Escherichia coli ATCC 26 (setting [8]); 0.33 mg/L (≈ 0.435 µM) in assay [3] (setting [9]); 0.041 mg/L (≈ 0.054 µM) in assay [4] (setting [10]).
As for `CC1=CC(OC(=O)c2ccccn2)C(=O)C=CC=Cc2csc(n2)C(C)N2C(=O)CC(C(C)(O)C(=O)SCc3oc(=O)oc3C)(CC1)[S+]2[O-]` (centres unmarked) [Compound 143], the increase in life span (ILS) at 0.5 mg/kg in the assay with P388 Leukemia (setting [12]) worked out at 49%. The MIC in assay [1] (setting [13]) stood at 0.16 mg/L (≈ 0.22 µM); in assay [2] (setting [14]) it was 0.33 mg/L (≈ 0.453 µM); in the assay on Escherichia coli ATCC 26 (setting [15]), 5.2 mg/L (≈ 7.14 µM); in assay [3] (setting [16]) it was 0.65 mg/L (≈ 0.893 µM); in assay [4] (setting [17]) it was 0.16 mg/L (≈ 0.22 µM).
Take `C/C1=C\C(OC2CCCCO2)C(=O)/C=C/C=C\c2csc(n2)C(C)N2C(=O)CC(C(C)(O)C(=O)SCc3oc(=O)oc3C)(CC1)[S+]2[O-]` (single isomer, unassigned) [Compound 63]: the ILS at 2 mg/kg in the assay with P388 Leukemia (setting [12]) was found to be 48%. Further, the MIC in assay [1] (setting [13]) is 0.65 mg/L (≈ 0.92 µM); in assay [2] (setting [14]), 0.65 mg/L (≈ 0.92 µM); in assay [3] (setting [16]), 5.2 mg/L (≈ 7.36 µM); in assay [4] (setting [17]), 0.081 mg/L (≈ 0.115 µM). The “MIC (minimum growth inhibitory concentration)” value against Escherichia coli ATCC 26 (EC: Escherichia coli ATCC 26, pH 7) amounted to 21 mg/L (≈ 29.7 µM).
On to `C/C1=C\C(OC(=O)CCCNC(=O)OCc2ccccc2)C(=O)/C=C/C=C\c2csc(n2)C(C)NC(=O)CC2(CC1)[S+]([O-])SC(=O)C2(C)O` (centres unmarked) [Compound 106], for which the ILS at 16 mg/kg in the assay on P388 Leukemia (16 mg/kg, single i.p. 24 hours after transplantation, CDF1 mice, 30 days observation) stood at 62%. Besides, the MIC in assay [1] (setting [6]) turned out to be 0.16 mg/L (≈ 0.219 µM); in assay [2] (setting [7]), 0.16 mg/L (≈ 0.219 µM); in the assay on Escherichia coli ATCC 26 (setting [8]), 10 mg/L (≈ 13.7 µM); in assay [3] (setting [9]), 1.3 mg/L (≈ 1.78 µM); in assay [4] (setting [10]) it was 0.041 mg/L (≈ 0.0562 µM).
With `C/C1=C\C(OC(=O)C2CCCCC2)C(=O)/C=C/C=C\c2csc(n2)C(C)NC(=O)CC2(CC1)[S+]([O-])SC(=O)C2(C)O` (centres unmarked) [Compound 6], the ILS at 4 mg/kg with P388 Leukemia (setting [12]) stood at 49%. The MIC in assay [1] (setting [6]) worked out at 0.91 mg/L (≈ 1.47 µM); in assay [2] (setting [7]), 0.91 mg/L (≈ 1.47 µM); with Escherichia coli ATCC 26 (setting [8]), 3.7 mg/L (≈ 5.96 µM); in assay [3] (setting [9]) it was 7.3 mg/L (≈ 11.8 µM); in assay [4] (setting [10]) it was 0.028 mg/L (≈ 0.0451 µM).
On to `CCOC(C)OC1/C=C(\C)CCC2(C(C)(O)C(=O)SCc3oc(=O)oc3C)CC(=O)N(C(C)c3nc(cs3)/C=C\C=C\C1=O)[S+]2[O-]` (centres unmarked) [Compound 87], for which the MIC in assay [1] (setting [6]) was found to be 0.85 mg/L (≈ 1.22 µM); in assay [2] (setting [7]) it was 54 mg/L (≈ 77.7 µM); in the assay on Escherichia coli ATCC 26 (setting [8]), 6.8 mg/L (≈ 9.79 µM); in assay [3] (setting [9]) it was 1.7 mg/L (≈ 2.45 µM); in assay [4] (setting [10]), 0.11 mg/L (≈ 0.158 µM).
